Results published in US6949682B2, “Cinnamaldehyde derivatives inhibiting growth of tumor cell and regulating cell cycle, preparations and pharmaceutical compositions thereof” (Korea Research Institute of Bioscience and Biotechnology, priority 2003, dated 2005).

How the values were obtained:
HCT116 colon cancer cell [1] = assay: Growth inhibition of HCT116 colon cancer cell (GI50); format: cell-based, human; conditions: Homo sapiens, HCT-116; concentration at which growth of HCT116 colon cancer cell was inhibited to the 50%
Experimental: (§1) Colon cancer cell of human SW620(ATCC) or HCT116 (ATCC) was transferred to T25 flask(culture 7.5 ml) by RPMI1640 (Gibco/BR) medium or DMEM medium (Gibco/BR) containing 10% FBS (fetal bovine serum), respectively. Thereafter the cell was incubated for 12 hours at 37° C. in incubator. After the cell was incubated for 12 hours, 7.5 μl of DMSO was added to a culture used as control group, for the final concentration to be 0.1%. In order to use in experiment, samples of various concentrations were prepared by dissolving the cinnamaldehyde derivatives of the present invention in DMSO. 7.5 μl of the prepared samples was added to a culture used as experimental group. Cell of control or experimental group was incubated for 48 hours.
(§2) HCT116 GI50 (μM) and SW620 GI50 (μM) mean to be the concentrations at which growth of HCT116 and SW620 colon cancer cell was inhibited to the 50%, respectively.

SW620 colon cancer cell [2] = assay: Growth inhibition of SW620 colon cancer cell (GI50); format: cell-based, human; conditions: Homo sapiens, SW-620; concentration at which growth of SW620 colon cancer cell was inhibited to the 50%
Experimental: as §1, §2

SW620 colon cancer cell [3] = assay: Cell cycle analysis (Experimental Example 1), SW620; format: cell-based, human; conditions: SW620, 1 μM, 48 hours, percentage of cells in G2/M
Experimental: as §1
(§3) For cell cycle analysis, incubated cell was removed from medium. Thereafter the incubated cell was separated from the flask by trypsin. Thus the cell was centrifuged at 300 g for 5 min. The cell was washed with phosphate buffer solution (PBS) to remove the residue medium from the cell. 3 ml of ethanol (70%) was added to the cell. The cell was fixed by being positioned at −20° C. for 12 hours. The fixed cell was centrifuged at 300 g for 3 min and washed with the cold PBS for two times to remove residual ethanol. The cell solution prepared by adding 500 μl of PBS to the cell was well mixed to produce the homogeneous state. 100 μg/ml RNase A 50 μl was added to the cell solution, thereafter the resulting cell solution was positioned at 37° C. for 30 min. The chromosomal DNA was stained by further adding 1 mg/ml propidium iodide (soluble in PBS) thereto.
(§4) Distribution of cell cycle of 20,000 stained cells were measured by using Becton-Dickinson FACS caliber (San Jose, Calif., USA).

HCT116 colon cancer cell [4] = assay: Cell cycle analysis (Experimental Example 1), HCT116; format: cell-based, human; conditions: HCT116, 1 μM, 48 hours, percentage of cells in G2/M
Experimental: as §1, §3, §4

HCT116 colon cancer cell [5] = assay: Cell cycle distribution (Experimental Example 2), HCT116; format: cell-based, human
Experimental: (§5) SW620 or HCT116 as colon cancer cell was inoculated in 100 mm plate to the amount of 2×10^6 cells. Then, cinnamaldehyde derivative of the present invention (compound 16 or compound 35) was added to the plate in the concentration of 1 μM. Thereafter, the colon cancer cell was incubated for 48 hours. Trypsin was added to the plate, to separate the colon cancer cell from the plate. And 5 ml of PBS (phosphate buffer solution) was added to the plate, to prepare the cell mixture. The cell mixture was centrifuged at 1,500 rpm for 5 min for two times, to remove trypsin from the mixture. The residue was washed with PBS for two times, thus the resulting supernatant was discarded. 1 ml of PBS and 3˜5 ml of cool ethanol(70%) was added to the resulting residue. The cell was fixed by being positioned at −20° C. for 12 hours. The fixed cell was centrifuged at 1,500 rpm for 5 min and washed with the cool PBS for two times to remove residual ethanol. RNase(10 μg/ml) was added to the fixed cell, to remove RNA. And DNA of the fixed cell was dyed with PI(propidium iodide, 50 μg/ml). After the fixed cell was positioned at 37° C. for 30 min, cell cycles of 20,000 cells were measured by using Becton-Dickinson FACS caliber (San Jose, Calif., USA).
(§6) For control group, the same procedure was accomplished except that DMSO was used in place of the cinnamaldehyde derivative.

SW620 colon cancer cell [6] = assay: Cell cycle distribution (Experimental Example 2), SW620; format: cell-based, human; conditions: SW620, 1 μM, 48 hours
Experimental: as §5, §6

CN1CCN(c2ccccc2/C=C(C=O)/C(C=O)=C/c2ccccc2N2CCN(C)CC2)CC1 [Compound 35, 2,3-bis-(2-(N-methylpiperazine)benzylidene)succinaldehyde]
GI50 (HCT116 colon cancer cell [1]): 5.23 µM | GI50 (SW620 colon cancer cell [2]): 720 nM | G2/M at 1 μM(%) SW620 (SW620 colon cancer cell [3]): 79% | G2/M at 1 μM(%) HCT116 (HCT116 colon cancer cell [4]): 52% | Amount of cell (%) G0-G1 (HCT116 colon cancer cell [5]; HCT116, 1 μM, 48 hours): 15.52% | Amount of cell (%) G2-M (HCT116 colon cancer cell [5]; HCT116, 1 μM, 48 hours): 52.11% | Amount of cell (%) S (HCT116 colon cancer cell [5]; HCT116, 1 μM, 48 hours): 32.37% | Holding of cancer cell in stage G2/M (in words) (HCT116 colon cancer cell [5]; HCT116 and SW620, 1 μM, summary of table 3): held a cancer cell in the stage G2/M | Amount of cell (%) G0-G1 (SW620 colon cancer cell [6]): 8.74% | Amount of cell (%) G2-M (SW620 colon cancer cell [6]): 78.53% | Amount of cell (%) S (SW620 colon cancer cell [6]): 12.73% | melting point: 218 to 220 °C
